# Experimental data from ChEMBL document CHEMBL1138350, “Allosteric modulation of the dopamine receptor by conformationally constrained type VI beta-turn peptidomimetics of Pro-Leu-Gly-NH2” (J Med Chem, 2007).
# The source made the active and inactive calls. The calls are words filed in the database; no cut-off is given here. Peptide text beside a SMILES is read from it.
# Legend:
# Type in all cases: cell membranes
# Settings in all cases: Striatum
# Bos taurus [1] = organism: Bos taurus; test: Enhancement of [3H]NPA binding to dopamine receptor in bovine striatal membrane at 1 uM
# Bos taurus [2] = organism: Bos taurus; test: Enhancement of [3H]NPA binding to dopamine receptor in bovine striatal membrane at 10 nM
# Bos taurus [3] = organism: Bos taurus; test: Enhancement of [3H]NPA binding to dopamine receptor in bovine striatal membrane at 100 nM
Activity (Bos taurus [1]),Activity (Bos taurus [2]),Activity (Bos taurus [3]) [%],Compound
Active,Active,19.5,CC(C)C[C@@]1(NC(=O)[C@@H]2CCCN2)CC[C@@]2(C(N)=O)CCCN2C1=O
–,–,38.2,NC(=O)[C@H]1CS[C@@H]2CC[C@]3(CCCN3C(=O)[C@@H]3CCCN3)C(=O)N12
–,11.4%,–,NC(=O)[C@]12CCCN1C(=O)[C@@]1(CCCN1C(=O)[C@@H]1CCCN1)CC2
–,–,34,NC(=O)[C@@H]1CCCN1C(=O)[C@@H]1CCCN1C(=O)[C@@H]1CCCN1 (H-Pro-Pro-Pro-NH2)
